The record followed here is patent US10508102B2, “Inhibitors of cellular necrosis and related methods” (President and Fellows of Harvard College, priority 2014, dated 2019).

What is called EC50 is the midpoint of the concentration-response curve.

Where two headings read alike, the source gives them in different places.

Assay [1] has as its system human FADD-deficient Jurkat T cells. The assay is described as follows: Cellular necrosis inhibition, FADD-deficient Jurkat T cells challenged with TNF-alpha (CellTiter-Glo viability). The settings on record: 30 hours, ATP-based cell viability. As to the method:
FADD−/− Jurkat cells (Juo P, et al. Cell Growth Differ. 1999, 10(12):797-804) were seeded at the density of 5*10^5 cells/mL into 96 well white plates (Costar) at 100 μL/well. […] Cells were treated in duplicate with various concentrations of test compounds in the presence or absence of 10 ng/ml human TNF-alpha. (Cell Sciences).
After 30 hours, viability of the cells was determined using luminescent ATP-based cell viability assay (CellTiter-Glo, Promega). Percentage of protection by the compound was calculated as a ratio of the cps (counts per second) value in the well treated with the test compound and TNF-alpha. to the cps value in the well treated with the compound alone. Assays were repeated twice, and the average EC50 value over both assays was calculated.
Exemplary compounds of structure (II) were screened for anti-necrotic activity according to the general procedures of Example 7.

Assay [2] deals with GST-human RIP1 kinase domain (amino acids 1-327) (Homo sapiens (Human), UniProt Q13546). Briefly: RIP1 kinase ADP-Glo assay.
GST-human RIP1 kinase domain (amino acids 1-327), sequence (Q13546 1-327): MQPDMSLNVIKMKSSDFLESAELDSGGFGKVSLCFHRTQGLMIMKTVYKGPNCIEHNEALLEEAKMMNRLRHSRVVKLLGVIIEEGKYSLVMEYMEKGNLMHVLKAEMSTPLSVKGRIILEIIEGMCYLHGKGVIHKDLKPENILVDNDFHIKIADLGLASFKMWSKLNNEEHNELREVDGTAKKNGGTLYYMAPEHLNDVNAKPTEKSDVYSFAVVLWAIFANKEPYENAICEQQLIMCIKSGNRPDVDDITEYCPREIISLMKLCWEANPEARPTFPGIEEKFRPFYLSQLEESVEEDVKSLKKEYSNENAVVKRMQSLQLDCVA
Method: RIP1 kinase assays were performed using ADP-Glo assay (Promega) according to manufacturer's protocol. […] Reactions were performed for 4 hr at room temperature and stopped by incubation with ADP-Glo reagent for 40 min at room temperature. Luminescent signal was developed by incubation with Kinase Detection reagent for 30 min at room temperature. Signal was determined using Victor3V platereader (Perkin Elmer). Non-linear regression to calculate EC50 values was performed using GraphPad Prism software package.
The mark [3] stands for this setting: 10 ng/ml human TNF-alpha, read-out: EC50 (nM) TNFα.
Setting [4] is: 10 ng/ml human TNF-alpha plus Smac mimetic (10 nM SM-164), read-out: EC50 (nM) TNFα + Smac.

Consider `CN1C(=O)N[C@H](Cc2c[nH]c3c(Cl)c(Cl)ccc23)C1=O` [B, reference compound], for which, in assay [1] (setting [3]), the EC50 is above 100000 nM.
Consider `CN1C(=O)N[C@H](Cc2c[nH]c3c(Cl)c(F)ccc23)C1=O` [Compound (Ia), (R)-5-((7-chloro-6-fluoro-1H-indol-3-yl)methyl)-3-methylimidazolidine-2,4-dione], for which the EC50 came out at 86.6 nM in assay [1] (setting [4]) and 93.7 nM in assay [2].
Consider `CN1C(=O)N[C@H](Cc2c[nH]c3c(Cl)cccc23)C1=O` [Compound A, reference compound], for which the EC50 in assay [1] (setting [4]) was determined as 324 nM; in assay [1] (setting [3]) it was 90.5 nM.
As for `O=C1NC(Cc2c[nH]c3ccccc23)C(=O)N1Cc1ccc(Cl)cc1` (centres unmarked) [Compound C1, reference compound], the EC50 in assay [1] (setting [3]) is 343 nM.
On to `CN1C(=O)N[C@H](Cc2c[nH]c3c(Cl)ccc(F)c23)C1=O` [Compound E, reference compound], for which the figures for the EC50 in assay [1] (setting [4]) and in assay [1] (setting [3]) were 8330 nM and 2330 nM, respectively.
For the compound `CN1C(=O)N[C@H](Cc2c[nH]c3c(Cl)cc(F)cc23)C1=O` [Compound F, reference compound], the EC50 in assay [1] (setting [4]) was above 100000 nM; in assay [1] (setting [3]) it was 10500 nM.
For `O=C1NC(Cc2c[nH]c3c(Cl)cccc23)C(=O)N1Cc1ccccc1F` (centres unmarked) [II-1, 5-((7-chloro-1H-indol-3-yl)methyl)-3-(2-fluorobenzyl)imidazolidine-2,4-dione] the same measures were 11000 nM and 159 nM.
Take `O=C1NC(Cc2c[nH]c3c(Cl)cccc23)C(=O)N1Cc1cccc(F)c1` (centres unmarked) [II-2, 5-((7-chloro-1H-indol-3-yl)methyl)-3-(3-fluorobenzyl)imidazolidine-2,4-dione]: the EC50 is 895 nM in assay [1] (setting [4]), 41 nM in assay [1] (setting [3]) and below 100 nM in assay [2].
With `O=C1NC(Cc2c[nH]c3c(Cl)cccc23)C(=O)N1Cc1ccc(F)c(F)c1` (centres unmarked) [II-3, 5-((7-chloro-1H-indol-3-yl)methyl)-3-(3,4-difluorobenzyl)imidazolidine-2,4-dione], the half-maximal effective concentration (EC50) in assay [1] (setting [4]) is 426 nM; in assay [1] (setting [3]), 89 nM; in assay [2], below 100 nM.
As for `O=C1NC(Cc2c[nH]c3c(Cl)cccc23)C(=O)N1Cc1ccc(F)cc1` (centres unmarked) [II-4, 5-((7-chloro-1H-indol-3-yl)methyl)-3-(4-fluorobenzyl)imidazolidine-2,4-dione], the concentration for a half-maximal effect (EC50) in assay [1] (setting [4]) turned out to be 867 nM; in assay [1] (setting [3]), 220 nM.
With `O=C1NC(Cc2c[nH]c3c(Cl)c(F)ccc23)C(=O)N1Cc1ccccc1F` (centres unmarked) [II-5, 5-((7-chloro-6-fluoro-1H-indol-3-yl)methyl)-3-(2-fluorobenzyl)imidazolidine-2,4-dione], the EC50 in assay [1] (setting [4]) worked out at 892 nM; in assay [1] (setting [3]), 235 nM.
For `O=C1NC(Cc2c[nH]c3c(Cl)c(F)ccc23)C(=O)N1Cc1cccc(F)c1F` (centres unmarked) [II-6, 5-((7-chloro-6-fluoro-1H-indol-3-yl)methyl)-3-(2,3-difluorobenzyl)imidazolidine-2,4-dione] the same measures were 822 nM and 50 nM.
As to `O=C1NC(Cc2c[nH]c3c(Cl)c(F)ccc23)C(=O)N1Cc1ccc(F)c(F)c1` (centres unmarked) [II-7, 5-((7-chloro-6-fluoro-1H-indol-3-yl)methyl)-3-(3,4-difluorobenzyl)imidazolidine-2,4-dione], the EC50 is 722 nM in assay [1] (setting [4]) and 121 nM in assay [1] (setting [3]).
